Experimental data published in ChEMBL document CHEMBL1128785, “Modifications of the MeBmt side chain of cyclosporin A” (Bioorg Med Chem Lett, 1995).

Tests used:
Format in all cases: functional
[1] = target: T1, Interleukin-2 (Mus musculus) (UniProt P04351); experiment: Tested in vitro for inhibition of Interleukin-2 (IL-2) release; 100 times less active than cyclosporin A
T1 sequence (whole entry): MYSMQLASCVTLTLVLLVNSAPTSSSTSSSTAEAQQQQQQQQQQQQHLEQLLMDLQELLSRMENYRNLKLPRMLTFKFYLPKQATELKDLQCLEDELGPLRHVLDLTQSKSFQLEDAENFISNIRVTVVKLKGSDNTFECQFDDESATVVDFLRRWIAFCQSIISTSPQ

[2] = Tested in vitro for mixed Lymphocyte reaction; 100 times less active than cyclosporin A
[3] = target: T1, Interleukin-2 (Mus musculus); experiment: Tested in vitro for inhibition of Interleukin-2 (IL-2) release; 2-3 times less active than compound 1
[4] = Tested in vitro for mixed Lymphocyte reaction; 2-3 times less active than compound 1

Row | Compound | Activity [1] | Activity [3] | Activity [2] | Activity [4]
1 | CC[C@@H]1NC(=O)[C@H]([C@H](O)[C@H](C)C[C@@H]2C[C@H]2C)N(C)C(=O)[C@H](C(C)C)N(C)C(=O)[C@H](CC(C)C)N(C)C(=O)[C@H](CC(C)C)N(C)C(=O)[C@@H](C)NC(=O)[C@H](C)NC(=O)[C@H](CC(C)C)N(C)C(=O)[C@H](C(C)C)NC(=O)[C@H](CC(C)C)N(C)C(=O)CN(C)C1=O |  | 2-3 times less active than compound 1 |  | 2-3 times less active than compound 1
2 | CC[C@@H]1NC(=O)[C@H]([C@@H]2O[C@]3(O)CC[C@@H]3C[C@H]2C)N(C)C(=O)[C@H](C(C)C)N(C)C(=O)[C@H](CC(C)C)N(C)C(=O)[C@H](CC(C)C)N(C)C(=O)[C@@H](C)NC(=O)[C@H](C)NC(=O)[C@H](CC(C)C)N(C)C(=O)[C@H](C(C)C)NC(=O)[C@H](CC(C)C)N(C)C(=O)CN(C)C1=O | 100 times less active than cyclosporin A |  | 100 times less active than cyclosporin A | 

The next lines start with results.

Row | Activity [1] | Activity [3] | Compound | Activity [2] | Activity [4]
3 | 100 times less active than cyclosporin A |  | CC[C@@H]1NC(=O)[C@H]([C@@H]2OC(C(C)=O)C[C@H]2C)N(C)C(=O)[C@H](C(C)C)N(C)C(=O)[C@H](CC(C)C)N(C)C(=O)[C@H](CC(C)C)N(C)C(=O)[C@@H](C)NC(=O)[C@H](C)NC(=O)[C@H](CC(C)C)N(C)C(=O)[C@H](C(C)C)NC(=O)[C@H](CC(C)C)N(C)C(=O)CN(C)C1=O (stereo not given in full) | 100 times less active than cyclosporin A | 
4 | 100 times less active than cyclosporin A |  | CC[C@@H]1NC(=O)[C@H]([C@H](O[Si](C)(C)C(C)(C)C)[C@H](C)C[C@H]2OC23CC3)N(C)C(=O)[C@H](C(C)C)N(C)C(=O)[C@H](CC(C)C)N(C)C(=O)[C@H](CC(C)C)N(C)C(=O)[C@@H](C)NC(=O)[C@H](C)NC(=O)[C@H](CC(C)C)N(C)C(=O)[C@H](C(C)C)NC(=O)[C@H](CC(C)C)N(C)C(=O)CN(C)C1=O | 100 times less active than cyclosporin A | 
5 |  | 2-3 times less active than compound 1 | CC=C=CC[C@@H](C)[C@@H](O)[C@H]1C(=O)N[C@@H](CC)C(=O)N(C)CC(=O)N(C)[C@@H](CC(C)C)C(=O)N[C@@H](C(C)C)C(=O)N(C)[C@@H](CC(C)C)C(=O)N[C@@H](C)C(=O)N[C@H](C)C(=O)N(C)[C@@H](CC(C)C)C(=O)N(C)[C@@H](CC(C)C)C(=O)N(C)[C@@H](C(C)C)C(=O)N1C |  | 2-3 times less active than compound 1
